In PubChem BioAssay AID1259408 (Genetic Toxicology Data Bank (GENE-TOX), 2018):
Calls of active or inactive are those of the source. The rule behind the calls is not given here.

System: GENE-TOX genotoxicity assays, various organisms and cells
Assay: GENE-TOX mutagenicity studies
[1] = Species/Cell Type: Nonhuman, Assay Type: Sister-chromatid exchange (SCE) in vitro, Assay Code: SC2+D, Dose Response: With dose response, Evaluation Type: Evaluation B (Post-1980)
[2] = Species/Cell Type: Saccharomyces cerevisiae, Assay Type: Mitotic recombination or gene conversion, Assay Code: YEH+, Evaluation Type: Evaluation A (Pre-1980)
[3] = Species/Cell Type: Saccharomyces cerevisiae, Assay Type: Reverse gene mutation, Assay Code: YER+, Evaluation Type: Evaluation A (Pre-1980)
[4] = Species/Cell Type: Salmonella typhimurium (one or more of the five standard strains: TA98, TA100, TA1535, TA1537, and TA1538), Assay Type: Histidine reverse gene mutation, Ames assay, Assay Code: SALT, Evaluation Type: Evaluation A (Pre-1980)
[5] = Species/Cell Type: Salmonella typhimurium (one or more of the five standard strains: TA98, TA100, TA1535, TA1537, and TA1538), Assay Type: Histidine reverse gene mutation, Ames assay, Assay Code: SAL+, Evaluation Type: Evaluation A (Pre-1980)
[6] = Species/Cell Type: Salmonella typhimurium, Assay Type: Forward and reverse gene mutation, host-mediated assay, Assay Code: HMA+, Evaluation Type: Evaluation A (Pre-1980)
[7] = Species/Cell Type: Syrian hamster embryo (SHE) cells, Assay Type: Cell transformation, clonal assay, Assay Code: CTC+, Evaluation Type: Evaluation A (Pre-1980)
[8] = Species/Cell Type: Salmonella typhimurium (one or more of the five standard strains: TA98, TA100, TA1535, TA1537, and TA1538), Assay Type: Histidine reverse gene mutation, Ames assay, Assay Code: SAL+*, Activation: With metabolic activation, Evaluation Type: Evaluation A (Pre-1980)
[9] = Species/Cell Type: Human lymphocytes, Assay Type: Sister-chromatid exchange (SCE) in vitro, Assay Code: SCLT, Evaluation Type: Evaluation B (Post-1980)
[10] = Species/Cell Type: Human, Assay Type: Sister-chromatid exchange (SCE) in vitro, Assay Code: SC1T, Evaluation Type: Evaluation B (Post-1980)

## Cc1ccc2c(c1O)N[C@H](O)[C@@H]1CC(/C=C/C(N)=O)=CN1C2=O
Species/Cell Type: Mammalian polychromatic erythrocytes, Assay Type: Micronucleus test, chromosome aberrations, Assay Code: MNTT, Evaluation Type: Evaluation B (Post-1980)
  mutagenic call: no conclusion
[1]
  mutagenic call: active; positive
Species/Cell Type: Saccharomyces cerevisiae, Assay Type: Mitotic recombination or gene conversion, Assay Code: YEC+, Evaluation Type: Evaluation A (Pre-1980)
  mutagenic call: active; positive
[2]
  mutagenic call: active; positive
[3]
  mutagenic call: active; positive
[4]
  mutagenic call: no conclusion

## [Cl][Ag]
Species/Cell Type: Bacillus subtilis (H17 vs M45), Assay Type: Rec-assay, spot test, DNA effects (bacterial DNA repair), Assay Code: REW-, Evaluation Type: Evaluation A (Pre-1980)
  mutagenic call: inactive; negative

## O=[N+]([O-])c1ccc2c(c1)Cc1ccccc1-2
Species/Cell Type: Escherichia coli polA (W3110 vs P3478), Assay Type: Rec-assay, DNA effects (bacterial DNA repair), Assay Code: RE2T, Evaluation Type: Evaluation A (Pre-1980)
  mutagenic call: no conclusion
Species/Cell Type: Escherichia coli polA (W3119 vs P3478), Assay Type: Rec-assay, DNA effects (bacterial DNA repair), Assay Code: RE1+, Evaluation Type: Evaluation A (Pre-1980)
  mutagenic call: active; positive
Species/Cell Type: Mouse, Sex: Male, Assay Type: Sperm morphology, Assay Code: SPI-, Evaluation Type: Evaluation A (Pre-1980)
  mutagenic call: inactive; negative
Species/Cell Type: Neurospora crassa, Assay Type: Aneuploidy, chromosome aberrations, Assay Code: NEN-, Evaluation Type: Evaluation A (Pre-1980)
  mutagenic call: inactive; negative
[1]
  mutagenic call: active; positive
Species/Cell Type: Nonhuman, Assay Type: Sister-chromatid exchange (SCE) in vivo, Assay Code: SC3+D, Dose Response: With dose response, Evaluation Type: Evaluation B (Post-1980)
  mutagenic call: active; positive
[2]
  mutagenic call: active; positive
[5]
  mutagenic call: active; positive
[6]
  mutagenic call: active; positive
[7]
  mutagenic call: active; positive

## CO[C@@]12[C@H](COC(N)=O)C3=C(C(=O)C(C)=C(N)C3=O)N1C[C@H]1[C@@H]2N1C (some centres not stated)
[1]
  mutagenic call: active; positive

## O=NN1CCC(=O)CC1
Species/Cell Type: Drosophila melanogaster, Assay Type: Sex-linked recessive lethal gene mutation, Assay Code: SRLT, Evaluation Type: Evaluation A (Pre-1980)
  mutagenic call: no conclusion
[8]
  mutagenic call: active; positive

## CCCCCCCCCCCC(=O)N(C)N=O
[3]
  mutagenic call: active; positive

## Cc1ncc(COP(=O)(O)O)c(C=O)c1O
[9]
  mutagenic call: no conclusion
[10]
  mutagenic call: no conclusion

## O=S1(=O)OCCCO1
[5]
  mutagenic call: active; positive
[6]
  mutagenic call: active; positive

## N=C(N)SCCN
Species/Cell Type: Human lymphocytes, Assay Type: Sister-chromatid exchange (SCE) in vitro, Assay Code: SCL+, Evaluation Type: Evaluation B (Post-1980)
  mutagenic call: active; positive
[9]
  mutagenic call: no conclusion
Species/Cell Type: Human, Assay Type: Sister-chromatid exchange (SCE) in vitro, Assay Code: SC1+, Evaluation Type: Evaluation B (Post-1980)
  mutagenic call: active; positive
[10]
  mutagenic call: no conclusion

## O[C@H]1[C@H]2c3cc4c(cc3CN3CCC(=C[C@@H]1O)[C@H]23)OCO4
Species/Cell Type: Mammalian polychromatic erythrocytes, Assay Type: Micronucleus test, chromosome aberrations, Assay Code: MNT+, Evaluation Type: Evaluation B (Post-1980)
  mutagenic call: active; positive

## Cc1cccc(-c2ccc(N)cc2C)c1
[7]
  mutagenic call: active; positive

## Oc1ccc(Cl)cc1Cl
[4]
  mutagenic call: no conclusion

## Cc1c2c(cc3c1ccc1ccccc13)C=CC(O)C2O (configuration not stated)
[8]
  mutagenic call: active; positive

## O.O.O.O.O.O.[Cl-].[Cl-].[Cl-].[Fe+3]
Species/Cell Type: Nonhuman, Assay Type: Sister-chromatid exchange (SCE) in vitro, Assay Code: SC2-, Evaluation Type: Evaluation B (Post-1980)
  mutagenic call: inactive; negative

## CC1CCc2c1ccc1c2ccc2ccccc21 (configuration not stated)
[8]
  mutagenic call: active; positive

## O=S(=O)(O)c1ccc(N=C2C=CC(=C(c3ccc(Nc4ccc(S(=O)(=O)O)cc4)cc3)c3ccc(Nc4ccc(S(=O)(=O)O)cc4)cc3)C=C2)cc1
Species/Cell Type: Bacillus subtilis (H17 vs M45), Assay Type: Rec-assay, spot test, DNA effects (bacterial DNA repair), Assay Code: REWT, Evaluation Type: Evaluation A (Pre-1980)
  mutagenic call: no conclusion

## COc1ccc(Cn2ccnc2/C=C/c2ccc([N+](=O)[O-])o2)cc1
Species/Cell Type: Neurospora crassa, Assay Type: Reverse gene mutation, Assay Code: NER+, Evaluation Type: Evaluation A (Pre-1980)
  mutagenic call: active; positive
